One block for each molecule: values may come before it. Numbered stars: 1 amine (or outer) side, 2 acyl side, 3 side chain; on linkers, the order of the positions; unused ones are H or OH. Bridge positions count the residues as written; N and C are the ends. Square brackets hold non-standard residues; d marks the D form. Side chains are listed from the residue outwards. Peptide text beside a SMILES is read from it. * marks the point of attachment. Trp(1-Me) = Cn1cc(C[C@H](N)C(=O)O)c2ccccc21; C18 diacid = O=C(O)CCCCCCCCCCCCCCCCC(=O)*; C16 diacid = O=C(O)CCCCCCCCCCCCCCC(=O)*; γGlu = O=C(O)[C@H](CCC(=O)[*:2])N[*:1]; AEEA = NCCOCCOCC(=O)O; CH2 = C([*:1])[*:2]; Sar = CNCC(=O)O
Experiments:
[1] = system: classical complement pathway; assay: In vitro haemolysis assay (inhibition of classical complement pathway); type: cell-based; settings: human serum, sensitized sheep RBC, 30 minutes at 37° C., absorbance at 405 nm, n=>2; read-out: IC50, inhibition of hemolysis
Procedure: The in vitro effect of some of the compounds described herein was assessed by measuring their inhibitory effect of the classical complement pathway in a haemolysis assay.
Briefly, compounds described herein and reference compounds were dissolved in DMSO and diluted in Tris/Casein Assay Buffer (10 mM Tris, 145 mM NaCl, 0.5 mM MgCl2, 0.15 mM CaCl2, and 0.1% W/V casein, adjusted to pH 7.4) as 9-point serial dilutions in a 96-well plate. Sensitized sheep red blood cells (RBC) coated with rabbit anti-sheep erythrocyte antiserum (Complement Technology, Inc., TX, USA) were washed in Tris/asein Assay Buffer. 50 μL from each well of diluted compound was added to a 96-well plate containing 50 μL diluted human serum (Complement Technology, Inc., TX, USA) and incubated for 15 minutes at room temperature. The serum dilution factor was optimized for every serum batch to obtain 70-90% of maximal haemolysis using the protocol. Then 50 μL sensitized sheep RBCs were added to all wells ([…]).
After 30 minutes of incubation at 37° C. with gentle agitation, the reaction was stopped by addition of 50 μL Tris STOP Buffer per well (10 mM EDTA, 10 mM Tris, 145 mM NaCl adjusted to pH 7.4). The RBCs were then removed by centrifugation and the resulting supernatant measured for hemolysis by absorbance at 405 nm.
The response was normalized relative to a positive and negative control (vehicle) to calculate the IC50 (nM) from the concentration response curve using the 4-parameter logistic (4PL) nonlinear model for curve fitting (Table 2). All values are based on n=>2 independent determinations.

Human C3 = molecular target: T1, Human C3 (Homo sapiens, UniProt P01024); assay: Affinity measurement by surface plasmon resonance with immobilized C3; settings: SPR, immobilized human C3, 25° C., 1:1 Langmuir binding model, n=>2
T1 construct: purchased Complement tech A113c
Procedure: (§1) Surface plasmon resonance (SPR) was used to characterize peptides with respect to their binding affinity (Kd) for C3.
(§2) For interaction experiments, a multi-cycle experiment approach was used and performed using a BiacoreX100™ instrument (GE Healthcare) at 25° C. Peptides were injected in increasing concentration series (5 different concentrations and buffer reference) for 180 seconds at a flow rate of 30 μL/min in a buffer consisting of 50 mM Tris buffer at pH 7.4, with 150 mM NaCl and 0.05% Tween20. This was followed by a dissociation period for 10 min. The C3 surface was regenerated between runs by two consecutive injections of 3 M MgCl2 each for 45 seconds.
(§3) Sensorgrams were double-referenced (reference surface, blanks) prior to analysis of the kinetic profiles by globally fitting data to a 1:1 Langmuir binding model to obtain association and dissociation rates for calculation of the equilibrium dissociation constant Kd (Table 3). Each peptide was tested at in at least 2 independent experiments.

[2] = molecular target: T2, Human C3 (Complement tech cat #A113c) (human, UniProt P01024 23-1663); assay: SPR (Biacore X100, 25 C), human C3 amine-coupled on CM5 chip, peptide as analyte, 1:1 Langmuir fit
T2 construct: Purified human C3 immobilised by amine coupling in the SPR assay; in the haemolysis assay the C3 is that of diluted human serum; Native C3 is a two-chain (beta and alpha) protein made from one precursor; also called complement factor C3
Procedure: as §1
as §2, with “min.” for “min. The C3 surface was regenerated between runs by two consecutive injections of 3 M MgCl2 each for 45 seconds.”
as §3

[3] = molecular target: T2, Human C3 (Complement tech cat #A113c); assay: cell-based or functional assay

T2 sequence (P01024 23-1663 limits assumed): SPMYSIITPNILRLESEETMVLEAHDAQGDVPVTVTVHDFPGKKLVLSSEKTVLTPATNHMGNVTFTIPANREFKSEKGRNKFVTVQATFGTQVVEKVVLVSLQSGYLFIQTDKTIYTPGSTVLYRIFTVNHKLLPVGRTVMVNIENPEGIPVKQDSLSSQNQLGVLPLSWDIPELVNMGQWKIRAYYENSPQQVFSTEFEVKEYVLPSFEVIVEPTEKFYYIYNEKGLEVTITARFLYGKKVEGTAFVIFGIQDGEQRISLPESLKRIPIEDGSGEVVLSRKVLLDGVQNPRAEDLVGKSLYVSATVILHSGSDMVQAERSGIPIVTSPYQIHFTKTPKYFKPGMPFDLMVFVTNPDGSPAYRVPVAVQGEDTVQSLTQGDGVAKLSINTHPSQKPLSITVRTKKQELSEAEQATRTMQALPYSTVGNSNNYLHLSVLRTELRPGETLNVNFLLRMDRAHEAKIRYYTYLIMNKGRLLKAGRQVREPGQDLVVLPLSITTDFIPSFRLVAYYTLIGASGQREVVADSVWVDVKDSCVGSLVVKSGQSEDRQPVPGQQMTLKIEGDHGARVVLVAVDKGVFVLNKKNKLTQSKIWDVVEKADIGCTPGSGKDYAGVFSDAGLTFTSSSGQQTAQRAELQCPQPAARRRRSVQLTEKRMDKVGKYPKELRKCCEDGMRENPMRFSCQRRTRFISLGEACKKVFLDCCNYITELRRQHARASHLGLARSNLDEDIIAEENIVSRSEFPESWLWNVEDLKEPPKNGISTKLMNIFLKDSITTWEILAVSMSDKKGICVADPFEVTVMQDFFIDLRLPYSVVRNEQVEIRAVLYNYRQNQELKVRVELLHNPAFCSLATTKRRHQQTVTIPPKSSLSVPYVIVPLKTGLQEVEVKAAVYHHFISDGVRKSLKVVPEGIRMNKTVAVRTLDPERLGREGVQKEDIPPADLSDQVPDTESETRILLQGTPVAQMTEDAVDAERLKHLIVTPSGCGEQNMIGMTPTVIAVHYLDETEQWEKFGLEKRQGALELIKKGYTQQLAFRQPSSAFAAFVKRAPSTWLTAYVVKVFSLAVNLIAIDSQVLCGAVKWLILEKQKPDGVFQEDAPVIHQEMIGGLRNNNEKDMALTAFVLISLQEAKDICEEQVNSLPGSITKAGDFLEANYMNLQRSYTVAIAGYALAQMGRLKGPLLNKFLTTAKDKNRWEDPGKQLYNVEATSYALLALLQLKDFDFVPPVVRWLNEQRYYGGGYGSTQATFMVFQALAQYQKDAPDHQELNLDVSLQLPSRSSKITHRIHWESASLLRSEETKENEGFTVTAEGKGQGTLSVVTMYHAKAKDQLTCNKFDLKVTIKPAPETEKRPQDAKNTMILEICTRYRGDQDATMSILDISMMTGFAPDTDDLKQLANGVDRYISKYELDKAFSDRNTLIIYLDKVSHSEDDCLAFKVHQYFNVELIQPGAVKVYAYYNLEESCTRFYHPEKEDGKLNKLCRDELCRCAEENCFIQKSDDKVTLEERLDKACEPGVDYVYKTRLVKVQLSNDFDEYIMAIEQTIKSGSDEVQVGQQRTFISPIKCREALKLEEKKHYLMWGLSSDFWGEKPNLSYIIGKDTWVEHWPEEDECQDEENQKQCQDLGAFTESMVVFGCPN

Molecule: CC[C@H](C)[C@@H]1NC(=O)[C@@H](NC(=O)[C@H](Cc2ccccc2)NC(=O)[C@H](CCC(=O)O)NC(=O)[C@H](CO)NC(C)=O)CSCSC[C@@H](C(=O)N[C@H](C(=O)N[C@@H](CCC(=O)O)C(=O)NCC(=O)N[C@@H](CCC(=O)O)C(=O)NCCOCCOCC(=O)NCCOCCOCC(=O)N[C@@H](CCCCNC(=O)CC[C@H](NC(=O)CNC(=O)CC[C@H](NC(=O)CCCCCCCCCCCCCCCCC(=O)O)C(=O)O)C(=O)O)C(N)=O)[C@@H](C)O)NC(=O)[C@H](CCCNC(=N)N)NC(=O)[C@H](Cc2c[nH]cn2)NC(=O)[C@H](CCC(=O)O)NC(=O)CN(C)C(=O)[C@H](Cc2c[nH]c3ccccc23)NC(=O)[C@H](CC(=O)O)NC(=O)[C@H](CCC(N)=O)NC(=O)[C@H](Cc2cn(C)c3ccccc23)NC1=O [Compound 9] (Ac-SEFCI[Trp(1-Me)]QDW[Sar]EHRCTEGE[AEEA][AEEA]K([γGlu-Gly-γGlu-C18 diacid])-NH2; linker 4-14 via CH2)
IC50 [1]: < 250 nM
Kd (Human C3): 17 nM

Molecule: CC[C@H](C)[C@@H]1NC(=O)[C@@H](NC(=O)[C@H](Cc2ccccc2)NC(=O)[C@H](CCC(=O)O)NC(=O)[C@H](CO)NC(C)=O)CSCSC[C@@H](C(=O)N[C@H](C(=O)N[C@@H](CCC(=O)O)C(=O)NCCOCCOCC(=O)NCCOCCOCC(=O)N[C@@H](CCCCNC(=O)CC[C@H](NC(=O)CNC(=O)CC[C@H](NC(=O)CCCCCCCCCCCCCCCCC(=O)O)C(=O)O)C(=O)O)C(N)=O)[C@@H](C)O)NC(=O)[C@H](CCCNC(=N)N)NC(=O)[C@H](Cc2c[nH]cn2)NC(=O)[C@H](CCC(=O)O)NC(=O)CN(C)C(=O)[C@H](Cc2c[nH]c3ccccc23)NC(=O)[C@H](CC(=O)O)NC(=O)[C@H](CCC(N)=O)NC(=O)[C@H](Cc2cn(C)c3ccccc23)NC1=O [Compound 10, Ac-SEF[C(1)]I[1-Me-Trp]QDW[Sar]EHR[C(1)]TE[Peg3][Peg3]-K([17-Carboxy-heptadecanoyl][yGlu]G[yGlu])-NH2] (Ac-SEFCI[Trp(1-Me)]QDW[Sar]EHRCTE[AEEA][AEEA]K([γGlu-Gly-γGlu-C18 diacid])-NH2; linker 4-14 via CH2)
IC50 [1]: < 250 nM
Kd (Human C3): 19 nM

Molecule: CC[C@H](C)[C@@H]1NC(=O)[C@@H](NC(=O)[C@H](Cc2ccccc2)NC(=O)[C@H](CCC(=O)O)NC(=O)[C@H](CO)NC(=O)CNC(=O)[C@H](CCC(=O)O)NC(=O)CCCCCCCCCCCCCCC(=O)O)CSCSC[C@@H](C(=O)N[C@H](C(=O)N[C@@H](CCC(=O)O)C(=O)NCC(=O)N[C@@H](CCC(=O)O)C(N)=O)[C@@H](C)O)NC(=O)[C@H](CCCNC(=N)N)NC(=O)[C@H](Cc2c[nH]cn2)NC(=O)[C@H](CCC(=O)O)NC(=O)CN(C)C(=O)[C@H](Cc2c[nH]c3ccccc23)NC(=O)[C@H](CC(=O)O)NC(=O)[C@H](CCC(N)=O)NC(=O)[C@H](Cc2cn(C)c3ccccc23)NC1=O [Compound 19] ({C16 diacid}-EGSEFCI[Trp(1-Me)]QDW[Sar]EHRCTEGE-NH2; linker 6-16 via CH2)
IC50 [1]: < 250 nM
Kd (Human C3): 19 nM

Molecule: CC[C@H](C)[C@@H]1NC(=O)[C@@H](NC(=O)[C@H](Cc2ccccc2)NC(=O)[C@H](CCC(=O)O)NC(=O)[C@H](CO)NC(=O)CNC(=O)[C@H](CCC(=O)O)NC(C)=O)CSCSC[C@@H](C(=O)N[C@H](C(=O)N[C@@H](CCC(=O)O)C(=O)NCC(=O)N[C@@H](CCC(=O)O)C(=O)NCCOCCOCC(=O)N[C@@H](CCC(=O)O)C(=O)N[C@@H](CO)C(=O)N[C@@H](CCCCNC(=O)CC[C@H](NC(=O)CCCCCCCCCCCCCCCCC(=O)O)C(=O)O)C(N)=O)[C@@H](C)O)NC(=O)[C@H](CCCNC(=N)N)NC(=O)[C@H](Cc2c[nH]cn2)NC(=O)[C@H](CCC(=O)O)NC(=O)CN(C)C(=O)[C@H](Cc2c[nH]c3ccccc23)NC(=O)[C@H](CC(=O)O)NC(=O)[C@H](CCC(N)=O)NC(=O)[C@H](Cc2cn(C)c3ccccc23)NC1=O [Compound 20, Ac-EGSEF[C(1)]I[1-Me-Trp]QDW[Sar]EHR[C(1)]TEGE[Peg3]ES-K([17-Carboxy-heptadecanoyl][yGlu])-NH2] (Ac-EGSEFCI[Trp(1-Me)]QDW[Sar]EHRCTEGE[AEEA]ESK([γGlu-C18 diacid])-NH2; linker 6-16 via CH2)
IC50 [1]: < 250 nM
Kd (Human C3): 19 nM

B1: Compound 2 (peptide)
peptide: Ac-SEFCI[Trp(1-Me)]QDWGEHRC[Sar]EGE[AEEA][AEEA]K([γGlu-Gly-γGlu-C18 diacid])-NH2
modifications: bridge 4-14 via methylene thioacetal (-S-CH2-S-)
notes: Synthetic compstatin analogue; also called Comp No 2
Kd [2]: 54 nM
IC50 [nM], in vitro inhibition of hemolysis (classical complement pathway; human serum, sensitized sheep RBC) [3]: < 500 nM

B3: Compound 25 (peptide)
peptide: Ac-SEQAFCI[Trp(1-Me)]QDW[Sar]EHRCTEGE[AEEA][AEEA]K([γGlu-Gly-γGlu-C18 diacid])-NH2
modifications: bridge 6-16 via methylene thioacetal (-S-CH2-S-)
notes: Synthetic compstatin analogue; also called Comp No 25; comp 25
Kd [2]: 9.1 nM
IC50 [nM], in vitro inhibition of hemolysis (classical complement pathway; human serum, sensitized sheep RBC) [3]: < 100 nM

B5: Compound 23 (peptide)
peptide: Ac-ESQVFCI[Trp(1-Me)]QDW[Sar]EHRCTEGE[AEEA][AEEA]K([γGlu-Gly-γGlu-C18 diacid])-NH2
modifications: bridge 6-16 via methylene thioacetal (-S-CH2-S-)
notes: Synthetic compstatin analogue; also called Comp No 23
Kd [2]: 14 nM
IC50 [nM], in vitro inhibition of hemolysis (classical complement pathway; human serum, sensitized sheep RBC) [3]: < 100 nM

Further lines, with some results ahead:

Kd (Human C3): 17 nM
Molecule: CC[C@H](C)[C@@H]1NC(=O)[C@@H](NC(=O)[C@H](Cc2ccccc2)NC(=O)CNC(=O)[C@H](CO)NC(=O)[C@H](CCC(=O)O)NC(=O)CNC(=O)[C@H](CCC(=O)O)NC(C)=O)CSCSC[C@@H](C(=O)N[C@H](C(=O)N[C@@H](CCC(=O)O)C(=O)NCC(=O)N[C@@H](CCC(=O)O)C(=O)NCCOCCOCC(=O)NCCOCCOCC(=O)N[C@@H](CCCCNC(=O)CC[C@H](NC(=O)CNC(=O)CC[C@H](NC(=O)CCCCCCCCCCCCCCCCC(=O)O)C(=O)O)C(=O)O)C(N)=O)[C@@H](C)O)NC(=O)[C@H](CCCNC(=N)N)NC(=O)[C@H](Cc2c[nH]cn2)NC(=O)[C@H](CCC(=O)O)NC(=O)CN(C)C(=O)[C@H](Cc2c[nH]c3ccccc23)NC(=O)[C@H](CC(=O)O)NC(=O)[C@H](CCC(N)=O)NC(=O)[C@H](Cc2cn(C)c3ccccc23)NC1=O [Compound 27, Ac-EGESGF[C(1)]I[1-Me-Trp]QDW[Sar]EHR[C(1)]TEGE[Peg3][Peg3]-K([17-Carboxy-heptadecanoyl][yGlu]G[yGlu])-NH2] (Ac-EGESGFCI[Trp(1-Me)]QDW[Sar]EHRCTEGE[AEEA][AEEA]K([γGlu-Gly-γGlu-C18 diacid])-NH2; linker 7-17 via CH2)
IC50 [1]: < 100 nM

Kd [2]: 13 nM
B2: Compound 24 (peptide)
peptide: Ac-ESEQVFCI[Trp(1-Me)]QDW[Sar]EHRCTEGE[AEEA][AEEA]K([γGlu-Gly-γGlu-C18 diacid])-NH2
modifications: bridge 7-17 via methylene thioacetal (-S-CH2-S-)
notes: Synthetic compstatin analogue; also called Comp No 24
IC50 [nM], in vitro inhibition of hemolysis (classical complement pathway; human serum, sensitized sheep RBC) [3]: < 100 nM

Kd [2]: 11 nM
B4: Compound 26 (peptide)
peptide: Ac-SKQEFCI[Trp(1-Me)]QDW[Sar]EHRCTEGE[AEEA][AEEA]K([γGlu-Gly-γGlu-C18 diacid])-NH2
modifications: bridge 6-16 via methylene thioacetal (-S-CH2-S-)
notes: Synthetic compstatin analogue; also called Comp No 26
IC50 [nM], in vitro inhibition of hemolysis (classical complement pathway; human serum, sensitized sheep RBC) [3]: < 100 nM

From US20230287051A1, “INHIBITORS OF COMPLEMENT FACTOR C3 AND THEIR MEDICAL USES” (ZP SPV 3 K/S, priority 2020, published 2023)
